ChEMBL document CHEMBL5523734, “Backbone-Determined Antiarrhythmic Structure-Activity Relationships for a Mirror Image, Oligomeric Depsipeptide Natural Product” (J Med Chem, 2024)
Activity calls are given as the source filed them. No cut-off for these calls is given here. Numbered stars: 1 amine (or outer) side, 2 acyl side, 3 side chain; on linkers, the order of the positions; unused ones are H or OH. Square brackets hold non-standard residues; d marks the D form. Peptide text beside a SMILES is read from it. X1 = CCCCC[C@H](O[*:1])C(=O)[*:2]; NMeAhp(2) = CCCCC[C@H](NC)C(=O)O; Ahp(2) = CCCCC[C@H](N)C(=O)O; dNMeA = CN[C@H](C)C(=O)O

Target: Ryanodine receptor 2 (Mus musculus) (UniProt E9Q401)
Sequence (E9Q401 whole entry): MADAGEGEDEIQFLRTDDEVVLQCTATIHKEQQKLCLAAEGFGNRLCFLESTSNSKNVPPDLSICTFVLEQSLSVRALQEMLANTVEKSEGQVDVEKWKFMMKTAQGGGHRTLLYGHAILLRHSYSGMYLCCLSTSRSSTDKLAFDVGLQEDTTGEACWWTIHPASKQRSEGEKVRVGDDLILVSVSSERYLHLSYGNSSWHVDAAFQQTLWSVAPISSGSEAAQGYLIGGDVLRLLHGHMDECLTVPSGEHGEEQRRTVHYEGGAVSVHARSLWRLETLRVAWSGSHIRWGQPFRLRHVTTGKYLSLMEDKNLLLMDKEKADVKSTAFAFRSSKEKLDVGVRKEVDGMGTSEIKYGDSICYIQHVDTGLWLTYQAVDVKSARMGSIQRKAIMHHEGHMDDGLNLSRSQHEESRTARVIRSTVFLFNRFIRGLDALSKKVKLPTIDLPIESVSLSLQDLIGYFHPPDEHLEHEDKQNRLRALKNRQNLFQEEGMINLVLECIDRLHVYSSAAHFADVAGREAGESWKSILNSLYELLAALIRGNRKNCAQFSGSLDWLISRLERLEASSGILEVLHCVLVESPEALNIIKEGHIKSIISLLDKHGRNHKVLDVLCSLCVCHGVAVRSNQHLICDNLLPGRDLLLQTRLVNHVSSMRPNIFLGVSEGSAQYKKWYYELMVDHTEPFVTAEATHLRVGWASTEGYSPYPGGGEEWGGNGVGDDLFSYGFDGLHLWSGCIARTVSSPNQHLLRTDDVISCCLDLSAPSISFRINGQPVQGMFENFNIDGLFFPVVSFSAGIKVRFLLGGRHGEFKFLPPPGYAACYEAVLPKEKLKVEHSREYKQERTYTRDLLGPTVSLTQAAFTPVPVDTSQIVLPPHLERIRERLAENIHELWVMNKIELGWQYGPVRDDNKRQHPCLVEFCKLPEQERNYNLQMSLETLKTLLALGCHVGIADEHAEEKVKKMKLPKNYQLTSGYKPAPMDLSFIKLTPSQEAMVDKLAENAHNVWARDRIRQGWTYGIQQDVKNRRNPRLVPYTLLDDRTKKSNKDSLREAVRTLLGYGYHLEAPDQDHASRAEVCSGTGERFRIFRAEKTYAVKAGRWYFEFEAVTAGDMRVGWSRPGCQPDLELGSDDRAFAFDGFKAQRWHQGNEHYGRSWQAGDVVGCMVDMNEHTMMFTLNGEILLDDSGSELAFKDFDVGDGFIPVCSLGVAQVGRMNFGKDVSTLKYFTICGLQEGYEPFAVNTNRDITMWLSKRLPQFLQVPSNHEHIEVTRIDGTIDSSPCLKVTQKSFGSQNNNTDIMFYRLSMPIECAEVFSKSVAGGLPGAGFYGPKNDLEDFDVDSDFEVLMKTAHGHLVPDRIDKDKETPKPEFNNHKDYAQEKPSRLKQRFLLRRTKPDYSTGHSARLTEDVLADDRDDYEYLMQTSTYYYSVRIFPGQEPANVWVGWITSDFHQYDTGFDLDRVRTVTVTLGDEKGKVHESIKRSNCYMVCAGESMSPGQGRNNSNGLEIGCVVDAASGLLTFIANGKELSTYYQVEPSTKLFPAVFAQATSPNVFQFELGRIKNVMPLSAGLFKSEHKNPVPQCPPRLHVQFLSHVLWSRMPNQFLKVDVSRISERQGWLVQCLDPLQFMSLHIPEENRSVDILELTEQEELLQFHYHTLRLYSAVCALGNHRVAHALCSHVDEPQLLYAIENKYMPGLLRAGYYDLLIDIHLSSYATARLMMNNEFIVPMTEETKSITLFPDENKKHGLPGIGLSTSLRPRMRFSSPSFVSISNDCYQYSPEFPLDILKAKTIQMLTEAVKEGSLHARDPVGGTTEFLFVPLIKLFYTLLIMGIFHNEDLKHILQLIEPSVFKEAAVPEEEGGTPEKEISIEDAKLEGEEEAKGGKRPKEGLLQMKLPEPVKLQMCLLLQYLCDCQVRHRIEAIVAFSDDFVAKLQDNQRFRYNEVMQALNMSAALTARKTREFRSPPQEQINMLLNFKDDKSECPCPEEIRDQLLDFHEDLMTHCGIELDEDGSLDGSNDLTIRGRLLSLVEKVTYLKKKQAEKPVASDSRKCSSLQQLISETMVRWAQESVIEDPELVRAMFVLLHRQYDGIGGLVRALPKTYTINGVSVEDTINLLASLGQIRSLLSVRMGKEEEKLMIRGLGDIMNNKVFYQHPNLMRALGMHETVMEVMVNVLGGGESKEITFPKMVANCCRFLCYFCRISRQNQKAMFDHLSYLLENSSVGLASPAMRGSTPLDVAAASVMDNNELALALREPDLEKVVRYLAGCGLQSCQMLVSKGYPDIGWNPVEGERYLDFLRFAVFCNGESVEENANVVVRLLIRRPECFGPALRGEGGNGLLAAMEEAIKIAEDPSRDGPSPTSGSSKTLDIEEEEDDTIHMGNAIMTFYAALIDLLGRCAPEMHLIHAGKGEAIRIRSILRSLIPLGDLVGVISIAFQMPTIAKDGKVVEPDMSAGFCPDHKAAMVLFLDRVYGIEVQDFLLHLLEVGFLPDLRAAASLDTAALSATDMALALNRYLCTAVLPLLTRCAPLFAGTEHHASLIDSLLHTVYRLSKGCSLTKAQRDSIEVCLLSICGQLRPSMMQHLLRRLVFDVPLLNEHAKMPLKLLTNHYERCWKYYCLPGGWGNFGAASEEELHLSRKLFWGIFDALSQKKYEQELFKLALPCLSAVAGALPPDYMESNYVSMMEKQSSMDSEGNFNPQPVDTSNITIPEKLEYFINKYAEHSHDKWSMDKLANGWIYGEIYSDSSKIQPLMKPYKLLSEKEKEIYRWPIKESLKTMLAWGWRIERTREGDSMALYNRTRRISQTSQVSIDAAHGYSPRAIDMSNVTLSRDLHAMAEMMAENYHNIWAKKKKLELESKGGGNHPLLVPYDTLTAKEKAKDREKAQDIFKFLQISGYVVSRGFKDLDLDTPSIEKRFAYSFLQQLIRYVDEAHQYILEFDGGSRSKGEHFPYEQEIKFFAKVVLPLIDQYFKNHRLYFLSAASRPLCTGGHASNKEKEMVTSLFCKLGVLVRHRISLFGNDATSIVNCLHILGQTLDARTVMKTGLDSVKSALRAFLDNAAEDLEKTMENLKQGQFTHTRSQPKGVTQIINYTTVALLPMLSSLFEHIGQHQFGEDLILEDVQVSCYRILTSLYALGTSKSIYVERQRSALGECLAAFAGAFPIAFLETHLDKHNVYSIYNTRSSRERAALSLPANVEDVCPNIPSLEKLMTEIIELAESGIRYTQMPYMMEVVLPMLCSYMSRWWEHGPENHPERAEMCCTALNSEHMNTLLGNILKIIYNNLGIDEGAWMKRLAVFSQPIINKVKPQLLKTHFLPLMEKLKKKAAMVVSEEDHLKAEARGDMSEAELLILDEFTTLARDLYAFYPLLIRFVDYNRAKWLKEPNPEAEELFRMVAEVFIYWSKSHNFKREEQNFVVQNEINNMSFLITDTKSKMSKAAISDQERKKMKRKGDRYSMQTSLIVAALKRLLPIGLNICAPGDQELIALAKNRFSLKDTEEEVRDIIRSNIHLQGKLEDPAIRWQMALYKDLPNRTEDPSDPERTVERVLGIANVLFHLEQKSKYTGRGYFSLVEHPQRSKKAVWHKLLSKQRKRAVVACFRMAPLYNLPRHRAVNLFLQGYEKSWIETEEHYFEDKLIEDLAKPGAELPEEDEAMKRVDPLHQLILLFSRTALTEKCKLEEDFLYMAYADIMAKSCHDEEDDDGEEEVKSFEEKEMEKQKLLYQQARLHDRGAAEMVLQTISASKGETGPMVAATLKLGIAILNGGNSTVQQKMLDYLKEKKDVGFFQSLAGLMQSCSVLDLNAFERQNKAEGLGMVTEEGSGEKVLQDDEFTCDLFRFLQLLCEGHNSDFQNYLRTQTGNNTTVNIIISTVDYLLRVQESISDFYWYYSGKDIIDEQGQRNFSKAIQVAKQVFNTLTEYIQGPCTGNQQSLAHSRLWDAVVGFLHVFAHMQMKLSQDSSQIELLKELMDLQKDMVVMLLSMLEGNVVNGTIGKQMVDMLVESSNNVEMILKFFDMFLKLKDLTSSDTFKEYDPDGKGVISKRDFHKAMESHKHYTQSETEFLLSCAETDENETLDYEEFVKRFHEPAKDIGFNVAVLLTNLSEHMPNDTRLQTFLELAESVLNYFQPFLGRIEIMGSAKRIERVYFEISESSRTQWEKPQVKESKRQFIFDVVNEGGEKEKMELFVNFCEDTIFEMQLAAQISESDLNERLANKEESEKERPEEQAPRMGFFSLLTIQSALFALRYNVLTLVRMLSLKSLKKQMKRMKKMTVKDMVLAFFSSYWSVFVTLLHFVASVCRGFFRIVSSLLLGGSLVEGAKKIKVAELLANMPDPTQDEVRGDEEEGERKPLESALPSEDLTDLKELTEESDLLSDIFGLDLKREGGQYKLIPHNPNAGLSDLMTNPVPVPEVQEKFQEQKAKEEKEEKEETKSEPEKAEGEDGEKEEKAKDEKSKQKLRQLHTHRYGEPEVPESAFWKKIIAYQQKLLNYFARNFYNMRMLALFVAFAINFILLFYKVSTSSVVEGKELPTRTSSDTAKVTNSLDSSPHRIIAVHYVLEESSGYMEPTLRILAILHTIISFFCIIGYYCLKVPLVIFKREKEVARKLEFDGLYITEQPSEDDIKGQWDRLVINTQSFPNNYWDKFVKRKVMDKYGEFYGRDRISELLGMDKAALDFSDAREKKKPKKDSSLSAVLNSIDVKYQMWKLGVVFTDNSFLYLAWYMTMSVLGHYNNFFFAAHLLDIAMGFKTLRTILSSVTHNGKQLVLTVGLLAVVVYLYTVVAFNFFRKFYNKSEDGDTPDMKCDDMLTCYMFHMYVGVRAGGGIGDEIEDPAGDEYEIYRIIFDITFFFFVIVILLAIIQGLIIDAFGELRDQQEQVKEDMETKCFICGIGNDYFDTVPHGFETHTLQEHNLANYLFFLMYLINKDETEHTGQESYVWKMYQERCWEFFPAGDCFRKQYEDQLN
Assay: Inhibition of RyR2-mediated calcium spark frequency in saponin-permeabilized left ventricular myocytes of C57BL/6J mouse at 25 uM incubated for 15 min by Fluo-4 dye based analysis
Assay type: cell-based
Settings: Ventricular myocyte
In the case of CCCCC[C@@H]1NC(=O)[C@@H](C)N(C)C(=O)[C@H](CCCCC)OC(=O)[C@@H](C)N(C)C(=O)[C@H](CCCCC)OC(=O)[C@@H](C)N(C)C(=O)[C@H](CCCCC)NC(=O)[C@@H](C)N(C)C1=O (cyclo([Ahp(2)][dNMeA][Ahp(2)][dNMeA][X1][dNMeA][X1][dNMeA])), the inhibition is reported as “inactive”. For CCCCC[C@@H]1OC(=O)[C@@H](C)N(C)C(=O)[C@H](CCCCC)OC(=O)[C@@H](C)N(C)C(=O)[C@H](CCCCC)OC(=O)[C@@H](C)N(C)C(=O)[C@H](CCCCC)OC(=O)[C@@H](C)N(C)C1=O, the inhibition was “inactive”. With CCCCC[C@@H]1NC(=O)[C@@H](C)N(C)C(=O)[C@H](CCCCC)NC(=O)[C@@H](C)N(C)C(=O)[C@H](CCCCC)OC(=O)[C@@H](C)N(C)C(=O)[C@H](CCCCC)NC(=O)[C@@H](C)N(C)C1=O (cyclo([Ahp(2)][dNMeA][Ahp(2)][dNMeA][Ahp(2)][dNMeA][X1][dNMeA])) the inhibition was “inactive”. With CCCCC[C@H]1C(=O)N[C@H](C)C(=O)N(C)[C@@H](CCCCC)C(=O)N(C)[C@H](C)C(=O)N(C)[C@@H](CCCCC)C(=O)N(C)[C@H](C)C(=O)N(C)[C@@H](CCCCC)C(=O)N(C)[C@H](C)C(=O)N1C (cyclo([NMeAhp(2)][dA][NMeAhp(2)][dNMeA][NMeAhp(2)][dNMeA][NMeAhp(2)][dNMeA])) the inhibition was “inactive”. In the case of CCCCC[C@@H]1NC(=O)[C@@H](C)N(C)C(=O)[C@H](CCCCC)NC(=O)[C@@H](C)N(C)C(=O)[C@H](CCCCC)N(C)C(=O)[C@@H](C)N(C)C(=O)[C@H](CCCCC)NC(=O)[C@@H](C)N(C)C1=O (cyclo([Ahp(2)][dNMeA][Ahp(2)][dNMeA][Ahp(2)][dNMeA][NMeAhp(2)][dNMeA])), the inhibition is reported as “inactive”. For CCCCC[C@@H]1OC(=O)[C@@H](C)N(C)C(=O)[C@H](CCCCC)N(C)C(=O)[C@@H](C)N(C)C(=O)[C@H](CCCCC)OC(=O)[C@@H](C)N(C)C(=O)[C@H](CCCCC)N(C)C(=O)[C@@H](C)N(C)C1=O, the inhibition was “inactive”. In the case of CCCCC[C@H]1C(=O)N[C@H](C)C(=O)N(C)[C@@H](CCCCC)C(=O)N(C)[C@H](C)C(=O)N(C)[C@@H](CCCCC)C(=O)N[C@H](C)C(=O)N(C)[C@@H](CCCCC)C(=O)N(C)[C@H](C)C(=O)N1C (cyclo([NMeAhp(2)][dA][NMeAhp(2)][dNMeA][NMeAhp(2)][dA][NMeAhp(2)][dNMeA])), the inhibition is reported as “inactive”. With CCCCC[C@@H]1NC(=O)[C@@H](C)N(C)C(=O)[C@H](CCCCC)NC(=O)[C@@H](C)N(C)C(=O)[C@H](CCCCC)NC(=O)[C@@H](C)N(C)C(=O)[C@H](CCCCC)NC(=O)[C@@H](C)N(C)C1=O (cyclo([Ahp(2)][dNMeA][Ahp(2)][dNMeA][Ahp(2)][dNMeA][Ahp(2)][dNMeA])) the inhibition was “inactive”. For CCCCC[C@@H]1OC(=O)[C@@H](C)N(C)C(=O)[C@H](CCCCC)OC(=O)[C@@H](C)NC(=O)[C@H](CCCCC)OC(=O)[C@@H](C)N(C)C(=O)[C@H](CCCCC)OC(=O)[C@@H](C)NC1=O, the inhibition was “inactive”. For CCCCC[C@@H]1NC(=O)[C@@H](C)N(C)C(=O)[C@H](CCCCC)N(C)C(=O)[C@@H](C)N(C)C(=O)[C@H](CCCCC)N(C)C(=O)[C@@H](C)N(C)C(=O)[C@H](CCCCC)N(C)C(=O)[C@@H](C)N(C)C1=O (cyclo([Ahp(2)][dNMeA][NMeAhp(2)][dNMeA][NMeAhp(2)][dNMeA][NMeAhp(2)][dNMeA])), the inhibition was “inactive”. With CCCCC[C@@H]1NC(=O)[C@@H](C)N(C)C(=O)[C@H](CCCCC)N(C)C(=O)[C@@H](C)N(C)C(=O)[C@H](CCCCC)NC(=O)[C@@H](C)N(C)C(=O)[C@H](CCCCC)N(C)C(=O)[C@@H](C)N(C)C1=O (cyclo([Ahp(2)][dNMeA][NMeAhp(2)][dNMeA][Ahp(2)][dNMeA][NMeAhp(2)][dNMeA])) the inhibition was “inactive”. With CCCCC[C@@H]1NC(=O)[C@@H](C)N(C)C(=O)[C@H](CCCCC)N(C)C(=O)[C@@H](C)N(C)C(=O)[C@H](CCCCC)N(C)C(=O)[C@@H](C)N(C)C(=O)[C@H](CCCCC)NC(=O)[C@@H](C)N(C)C1=O (cyclo([Ahp(2)][dNMeA][Ahp(2)][dNMeA][NMeAhp(2)][dNMeA][NMeAhp(2)][dNMeA])) the inhibition was “inactive”. With CCCCC[C@@H]1OC(=O)[C@@H](C)N(C)C(=O)[C@H](CCCCC)OC(=O)[C@@H](C)N(C)C(=O)[C@H](CCCCC)N(C)C(=O)[C@@H](C)N(C)C(=O)[C@H](CCCCC)OC(=O)[C@@H](C)N(C)C1=O the inhibition was “Active”. With CCCCC[C@@H]1OC(=O)[C@@H](C)N(C)C(=O)[C@H](CCCCC)OC(=O)[C@@H](C)N(C)C(=O)[C@H](CCCCC)OC(=O)[C@@H](C)N(C)C(=O)[C@H](CCCCC)OC(=O)[C@@H](C)NC1=O the inhibition was “inactive”. In the case of CCCCC[C@@H]1NC(=O)[C@@H](C)N(C)C(=O)[C@H](CCCCC)OC(=O)[C@@H](C)N(C)C(=O)[C@H](CCCCC)OC(=O)[C@@H](C)N(C)C(=O)[C@H](CCCCC)OC(=O)[C@@H](C)N(C)C1=O (cyclo([Ahp(2)][dNMeA][X1][dNMeA][X1][dNMeA][X1][dNMeA])), the inhibition is reported as “Active”. In the case of CCCCC[C@H]1C(=O)N[C@H](C)C(=O)N(C)[C@@H](CCCCC)C(=O)N[C@H](C)C(=O)N(C)[C@@H](CCCCC)C(=O)N(C)[C@H](C)C(=O)N(C)[C@@H](CCCCC)C(=O)N(C)[C@H](C)C(=O)N1C (cyclo([NMeAhp(2)][dA][NMeAhp(2)][dA][NMeAhp(2)][dNMeA][NMeAhp(2)][dNMeA])), the inhibition is reported as “inactive”. With CCCCC[C@@H]1OC(=O)[C@@H](C)N(C)C(=O)[C@H](CCCCC)OC(=O)[C@@H](C)NC(=O)[C@H](CCCCC)OC(=O)[C@@H](C)NC(=O)[C@H](CCCCC)OC(=O)[C@@H](C)NC1=O the inhibition was “inactive”. With CCCCC[C@@H]1NC(=O)[C@@H](C)N(C)C(=O)[C@H](CCCCC)OC(=O)[C@@H](C)N(C)C(=O)[C@H](CCCCC)NC(=O)[C@@H](C)N(C)C(=O)[C@H](CCCCC)OC(=O)[C@@H](C)N(C)C1=O (cyclo([Ahp(2)][dNMeA][X1][dNMeA][Ahp(2)][dNMeA][X1][dNMeA])) the inhibition was “inactive”. With CCCCC[C@@H]1OC(=O)[C@@H](C)N(C)C(=O)[C@H](CCCCC)N(C)C(=O)[C@@H](C)N(C)C(=O)[C@H](CCCCC)N(C)C(=O)[C@@H](C)N(C)C(=O)[C@H](CCCCC)N(C)C(=O)[C@@H](C)N(C)C1=O the inhibition was “inactive”. For CCCCC[C@H]1C(=O)N(C)[C@H](C)C(=O)N(C)[C@@H](CCCCC)C(=O)N(C)[C@H](C)C(=O)N(C)[C@@H](CCCCC)C(=O)N(C)[C@H](C)C(=O)N(C)[C@@H](CCCCC)C(=O)N(C)[C@H](C)C(=O)N1C (cyclo([NMeAhp(2)][dNMeA][NMeAhp(2)][dNMeA][NMeAhp(2)][dNMeA][NMeAhp(2)][dNMeA])), the inhibition was “inactive”. For CCCCC[C@@H]1OC(=O)[C@@H](C)N(C)C(=O)[C@H](CCCCC)N(C)C(=O)[C@@H](C)N(C)C(=O)[C@H](CCCCC)N(C)C(=O)[C@@H](C)N(C)C(=O)[C@H](CCCCC)OC(=O)[C@@H](C)N(C)C1=O, the inhibition was “inactive”. For CCCCC[C@@H]1OC(=O)[C@@H](C)N(C)C(=O)[C@H](CCCCC)OC(=O)[C@@H](C)N(C)C(=O)[C@H](CCCCC)OC(=O)[C@@H](C)NC(=O)[C@H](CCCCC)OC(=O)[C@@H](C)NC1=O, the inhibition was “inactive”. For CCCCC[C@H]1C(=O)N[C@H](C)C(=O)N(C)[C@@H](CCCCC)C(=O)N[C@H](C)C(=O)N(C)[C@@H](CCCCC)C(=O)N[C@H](C)C(=O)N(C)[C@@H](CCCCC)C(=O)N[C@H](C)C(=O)N1C (cyclo([NMeAhp(2)][dA][NMeAhp(2)][dA][NMeAhp(2)][dA][NMeAhp(2)][dA])), the inhibition was “inactive”. With CCCCC[C@H]1C(=O)N[C@H](C)C(=O)N(C)[C@@H](CCCCC)C(=O)N[C@H](C)C(=O)N(C)[C@@H](CCCCC)C(=O)N[C@H](C)C(=O)N(C)[C@@H](CCCCC)C(=O)N(C)[C@H](C)C(=O)N1C (cyclo([NMeAhp(2)][dA][NMeAhp(2)][dA][NMeAhp(2)][dA][NMeAhp(2)][dNMeA])) the inhibition was “inactive”. In the case of CCCCC[C@@H]1OC(=O)[C@@H](C)NC(=O)[C@H](CCCCC)OC(=O)[C@@H](C)NC(=O)[C@H](CCCCC)OC(=O)[C@@H](C)NC(=O)[C@H](CCCCC)OC(=O)[C@@H](C)NC1=O, the inhibition is reported as “inactive”.

Test system: not listed separately
Assay: Passive permeability of compound by PAMPA
Assay type: ADME
Settings: not given
For CCCCC[C@@H]1OC(=O)[C@@H](C)N(C)C(=O)[C@H](CCCCC)OC(=O)[C@@H](C)N(C)C(=O)[C@H](CCCCC)N(C)C(=O)[C@@H](C)N(C)C(=O)[C@H](CCCCC)OC(=O)[C@@H](C)N(C)C1=O, the permeability was “Permeable”. In the case of CCCCC[C@@H]1NC(=O)[C@@H](C)N(C)C(=O)[C@H](CCCCC)OC(=O)[C@@H](C)N(C)C(=O)[C@H](CCCCC)OC(=O)[C@@H](C)N(C)C(=O)[C@H](CCCCC)OC(=O)[C@@H](C)N(C)C1=O (cyclo([Ahp(2)][dNMeA][X1][dNMeA][X1][dNMeA][X1][dNMeA])), the permeability is reported as “Permeable”.
